# Measured values published in paper PMC11642994, “AGC family kinase of Entamoeba histolytica: Decoding the members biochemically” (PLOS Pathogens, 2024).
# No end group written: not given here.
# Key:
# Format in all cases: binding
# KDD2 = target: T1, KDD2 (Entamoeba histolytica, UniProt C4M3C2, D242A/K147A); experiment: Microscale Thermophoresis (MST), kinase-dead EhAGCK2 (KDD2); conditions: KDD2 (K147A and D242A), Tris-Cl pH 8, 25°C, peptide 500 μM to 153 nM, n = 6
# T1 sequence (C4M3C2 1-434 K147A/D242A): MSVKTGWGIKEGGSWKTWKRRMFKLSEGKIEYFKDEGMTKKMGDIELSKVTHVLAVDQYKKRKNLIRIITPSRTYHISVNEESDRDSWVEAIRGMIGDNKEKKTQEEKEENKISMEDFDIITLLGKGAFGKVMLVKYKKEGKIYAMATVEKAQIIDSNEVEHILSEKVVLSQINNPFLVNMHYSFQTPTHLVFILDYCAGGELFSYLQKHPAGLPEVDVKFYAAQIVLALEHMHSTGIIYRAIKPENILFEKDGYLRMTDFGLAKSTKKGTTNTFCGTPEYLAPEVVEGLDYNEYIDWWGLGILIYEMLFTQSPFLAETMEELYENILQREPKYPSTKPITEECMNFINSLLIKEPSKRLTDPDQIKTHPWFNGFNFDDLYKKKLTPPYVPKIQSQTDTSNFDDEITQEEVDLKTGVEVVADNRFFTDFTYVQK
# Experimental: (§1) Microscale Thermophoresis (MST) was performed in the presence of full-length and kinase-dead EhAGCK1 and EhAGCK2 proteins, along with HsGSK3, EhRhoGEF, and EhCoactosin peptide substrates. Proteins were labelled using a His-tag labelling kit, RED-tris-NTA 2nd Generation (Nano Temper Technologies, San Francisco, CA, USA). A brief labelling reaction was performed in a buffer containing (50 mM Tris-Cl pH 8, 150 mM NaCl, 1 mM β-ME and 5% glycerol) with a protein concentration of 20 nM and a molar dye: protein ratio of approximately 3:1. The mixture was kept at room temperature for 30 min, followed by centrifugation at 15000 g for 10 min at 4°C. A series of 16 1:1 dilutions were prepared using the same buffer, resulting in peptide concentrations ranging from 500 μM to […]. Following a 10 min incubation, the samples were loaded into standard monolith NT.115 capillaries from Nano Temper Technologies. […] Data from three independently pipetted measurements were analysed using MO. […]
# (§2) The kinase assay data presented here are the mean ± standard error (SE) of n≥3 of three independent experiments. The Km and Vmax were determined from a direct, nonlinear fit of [V] versus [S] plots using the Michaelis-Menten equation: V=Vmax[S]/Km+[S] using the GraphPad Prism 9.0 software package (GraphPad Software Inc., CA, USA). […]
# EhAGCK1 WT = EhAGCK1 WT (Entamoeba histolytica, UniProt C4M2W0); experiment: Microscale Thermophoresis (MST), EhAGCK1 WT; conditions: MST, EhAGCK1
# Experimental: as §1, §2
# KDD1 = target: T2, KDD1 (Entamoeba histolytica, UniProt C4M2W0, D241A/K147A); experiment: Microscale Thermophoresis (MST), kinase-dead EhAGCK1 (KDD1); conditions: KDD1 (K147A and D241A), Tris-Cl pH 8, 25°C, peptide 500 μM to 153 nM, n = 6
# T2 sequence (C4M2W0 1-433 K147A/D241A): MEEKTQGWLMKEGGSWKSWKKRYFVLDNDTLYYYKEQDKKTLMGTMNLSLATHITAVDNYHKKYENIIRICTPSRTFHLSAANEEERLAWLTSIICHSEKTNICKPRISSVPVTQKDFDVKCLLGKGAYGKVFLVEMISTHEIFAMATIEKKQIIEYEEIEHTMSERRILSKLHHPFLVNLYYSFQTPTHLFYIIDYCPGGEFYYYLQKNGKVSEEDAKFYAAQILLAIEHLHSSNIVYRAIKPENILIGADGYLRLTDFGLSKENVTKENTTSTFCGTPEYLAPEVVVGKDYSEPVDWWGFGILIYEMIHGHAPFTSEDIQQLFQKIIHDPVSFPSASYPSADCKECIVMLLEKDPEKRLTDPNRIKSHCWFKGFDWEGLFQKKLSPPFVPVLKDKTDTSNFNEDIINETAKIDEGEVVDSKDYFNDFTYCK
# Experimental: as §1, §2
Sequence,Kd (KDD2) [µM],KD range in words (EhAGCK1 WT),Kd (KDD1) [µM]
KAGGADYSFNTTSN [Coactosin],11.9,,
SSPSSVPAAQSTTPVNVPK [RhoGEF],,within the nanomolar range,11.9
